Literature values in patent US20190022132A1, “TREATMENT OR PREVENTION OF PULMONARY CONDITIONS WITH CARBON MONOXIDE” (PROTERRIS, INC., priority 2013, published 2019).

What was measured:
[1] = CO alveolar concentration of 25 ppm
[2] = system: models of acute lung injury; details: early timepoints; effect not sustained beyond the first 6 hours
brain = details: inhalation, rats
[3] = Phase I and Phase II human trials

In the case of `[C-]#[O+]` [CO, carbon monoxide], the “time to reach an equilibration point” value [1] is listed as “about 20 hours”, the “airway neutrophil count and lung injury” value [2] is listed as “decrease airway neutrophil count and lung injury at early timepoints” and the “oxidative damage in the brain” value (brain) is listed as “can cause oxidative damage in the brain”. For the same compound, the tolerability [3] was “well tolerated”.
